Measurements published in patent US12145947B2, “Pyrimidine based modulators and uses thereof” (Quanta Therapeutics, Inc., priority 2022, dated 2024).

Key:
Type in all cases: binding
[1] = biological target: T1, KRAS G12V/RAF1 (Homo sapiens, UniProt P01116, G12V); test: Protein-protein interaction (PPI) HTRF assay KRAS G12V/RAF1; conditions: Table 3; KRASG12V/RAF1
T1 construct: His6-MBP (N, cleaved yes); made in house; host or cells: E. coli
Method: (§1) Biotinylated KRAS wt and KRAS G12DNV proteins were expressed and purified in conditions similar to those previously reported (Tran, et al., 2021) (Zhang, et al., 2020). Briefly, KRAS (1-169) proteins were expressed in E. coli at 18° C. with an upstream TEV cleavage site (ENLFYQS (SEQ ID NO: 6)) followed an Avi tag sequence ([…] (SEQ ID NO: 7)). KRAS expression constructs contained both a His6 (SEQ ID NO: 8) and maltose-binding protein (MBP) tags at the N-terminus for Ni-NTA column purification prior to overnight TEV cleavage and MBP column purification. The avi-tagged NRAS expression construct contained both a His6 tag (SEQ ID NO: 8) and SUMO cleavage sige at the N-terminus for Ni-NTA column purification followed by His-ULPi digestion overnight. […]
(§2) When RAS proteins are in the active GTP-bound conformation, they bind the effector protein RAF1 at the N-terminus Ras-binding domain (RBD, residues 52-131) (Tran, et al., 2021). Homogenous time resolved fluorescence (HTRF) was used to monitor the interaction between wt or mutant KRAS and RAF1 or wt NRAS and RAFT. […] The intensity of the fluorescence signal emitted is proportional to binding between the two proteins. […] The fluorescence signal emitted was monitored at 665 nm and 615 nm using an Envision multimode plate reader. […]

[2] = biological target: T2, w.t.KRAS/RAF1 (Homo sapiens, UniProt P01116); test: Protein-protein interaction (PPI) HTRF assay w.t.KRAS/RAF1; conditions: Table 3; wtKRAS/RAF1
T2 construct: His6-MBP (N, cleaved yes); made in house; host or cells: E. coli
T2 sequence (P01116 with tags, fused parts or gaps isoform P01116-2): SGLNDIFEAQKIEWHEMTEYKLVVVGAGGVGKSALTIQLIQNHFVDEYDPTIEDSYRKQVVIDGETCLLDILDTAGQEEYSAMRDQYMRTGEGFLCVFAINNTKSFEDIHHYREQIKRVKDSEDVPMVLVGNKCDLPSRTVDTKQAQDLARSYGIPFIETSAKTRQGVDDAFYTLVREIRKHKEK
Method: as §1, §2

[3] = biological target: T3, w.t. NRAS/RAF1 (Homo sapiens, UniProt P01111); test: Protein-protein interaction (PPI) HTRF assay NRAS/RAF1; conditions: Table 3; wtNRAS/RAF1
T3 construct: His6-SUMO (N, cleaved yes); made in house; host or cells: E. coli (printed for KRAS and RAF1)
T3 sequence (P01111 with tags, fused parts or gaps): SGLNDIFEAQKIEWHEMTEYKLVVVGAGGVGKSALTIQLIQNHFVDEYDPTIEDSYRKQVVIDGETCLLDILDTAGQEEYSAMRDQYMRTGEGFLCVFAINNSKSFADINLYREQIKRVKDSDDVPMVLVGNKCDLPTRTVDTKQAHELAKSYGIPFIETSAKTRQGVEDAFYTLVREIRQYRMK
Method: as §1, §2

T1 sequence (P01116 with tags, fused parts or gaps isoform P01116-2 G12V): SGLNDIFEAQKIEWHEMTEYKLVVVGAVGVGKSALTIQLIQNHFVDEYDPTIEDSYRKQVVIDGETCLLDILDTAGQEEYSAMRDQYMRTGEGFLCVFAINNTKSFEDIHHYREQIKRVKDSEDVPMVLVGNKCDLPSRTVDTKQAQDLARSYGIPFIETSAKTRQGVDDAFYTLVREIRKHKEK

**Q.** How did the IC50 [1] turn out when `CN(C)C(=O)c1nn2c(c1Cl)CN(c1nc(OC[C@@]34CCCN3C[C@H](F)C4)nc(N3CC4(CCc5sc(N)c(C#N)c54)C3)c1C#N)CCC2` [Compound 2, 5-[6-(2-amino-3-cyano-spiro[5,6-dihydrocyclopenta[b]thiophene-4,3′-azetidine]-1′-yl)-5-cyano-2-[[(2R,8S)-2-fluoro-1,2,3,5,6,7-hexahydropyrrolizin-8-yl]methoxy]pyrimidin-4-yl]-3-chloro-N,N-dimethyl-4,6,7,8-tetrahydropyrazolo[1,5-a][1,4]diazepine-2-carboxamide] was run?
**A.** Its IC50 is 1 to 10 µM.

**Q.** What about the IC50 [2] of the same molecule?
**A.** Its IC50 is 1 to 10 µM.

**Q.** And the IC50 [3]?
**A.** The IC50 was > 100 µM.

**Q.** Which results are given for `CN(C)C(=O)c1nn2c(c1Cl)CN(c1nc(OC[C@@]34CCCN3C[C@H](F)C4)nc(N3CC4(CCCc5sc(N)c(C#N)c54)C3)c1C#N)CCC2` [Compound 3, 5-[6-(2-amino-3-cyano-spiro[6,7-dihydro-5H-benzothiophene-4,3′-azetidine]-1′-yl)-5-cyano-2-[[(2R,8S)-2-fluoro-1,2,3,5,6,7-hexahydropyrrolizin-8-yl]methoxy]pyrimidin-4-yl]-3-chloro-N,N-dimethyl-4,6,7,8-tetrahydropyrazolo[1,5-a][1,4]diazepine-2-carboxamide]?
**A.** IC50 [1]: 10 to 100 µM; IC50 [3]: > 100 µM
